Assay [1] relates to SK-N-BE(2)-C shMYCN cells. Briefly: Alamar Blue viability, Dox-inducible SK-N-BE(2)-C shMYCN cells. Format: cell-based. To be noted: Homo sapiens, 72 h, 72 h treatment. The text has this: (§1) The MYCN amplified neuroblastoma cell line SK-N-BE(2)-C was kindly provided by Professor June Biedler (Memorial Sloan Kettering Cancer Centre, New York, NY, USA), and Kelly was obtained from European Collection of Cell Cultures. The two normal lung fibroblast cell lines (MRC-5 and WI-38) were purchased from ATCC. SK-N-BE(2)-C shMYCN#2 doxycycline-inducible cell and Kelly shMYCN#2 doxycycline-inducible cell were custom-made by GenScript (Piscataway, NJ, USA). SK-N-BE(2)-C, SK-N-BE(2)-C shMYCN#2, and SHEP MYCN3 doxycycline-inducible cells were maintained in Dulbecco’s modified Eagle’s medium (DMEM) (Invitrogen, Life Technologies, Waltham, MA, USA) with 10% foetal calf serum (FCS). Kelly and Kelly shMYCN#2 doxycycline-inducible cell were cultured in Roswell Park Memorial Institute (RPMI) 1640 (Invitrogen, Life Technologies) with 10% FCS. MRC-5 and WI-38 were cultured in Alpha-MEM media (Invitrogen, Life Technologies) with 10% FCS. All cells were not cultured for more than 2 months. All used cell lines were authenticated by Cell Bank Australia (Westmead, NSW, Australia) as being free from mycoplasma, and cultured at 37 °C and 5% CO2 in a humidifier incubator.
(§2) Cell viability was determined by the Alamar Blue assay (75 mg resazurin, 12.5 mg methylene blue, 164.5 mg potassium hexacyanoferrate (III), 211 mg potassium hexacyanoferrate (II) trihydrate in 500 mL of phosphate buffered saline). After 6 h incubation with Alamar Blue, the change of fluorescence was measured by Victor 3 multilabel Plate Reader (Perkin Elmer Australia, Melburne, Australia) at an excitation wavelength of 560 nm and an emission wavelength of 590 nm.
(§3) Next, we examined whether #5333 and #5338 treatment for 48 h affected the levels of WS6 target proteins, PA2G4, and MYCN in neuroblastoma cells. […] To determine the specificity of #5333 and #5338 for MYCN, we used two different doxycycline (Dox)-inducible neuroblastoma cell systems for repression of MYCN expression: shMYCN SK-N-BE(2)-C (MYCN-amplified) and shMYCN Kelly (MYCN-amplified) cell lines. Cell viability was measured following #5333 and #5338 treatments for 48–72 h. […] In addition, the specificity and efficacy of #5333 and #5338 were also tested in MYCN non-amplified SHEP MYCN3 cell lines with Dox-inducible MYCN induction. Cell viability was measured following #5333, #5338, or WS6 treatments for 72 h.
(§4) Figure 3 Compounds #5333 and #5338 functionally interact with MYCN and PA2G4 in neuroblastoma cells. (A) Western blot showing a decrease in protein expression due to #5333 or #5338 drug treatment. (B) Alamar Blue assays comparing cell viability of SK-N-BE(2)-C after Doxycycline (Dox)-inducible MYCN knockdown, followed by 72 h treatment with #5333 or #5338. […]

Assay [2] concerns SK-N-BE(2)-C cells. Briefly: Colony formation assay, SK-N-BE(2)-C. The class given is cell-based, human. The settings on record: increasing concentrations, 2 weeks. The method, then:
(§5) A total of 250 SK-N-BE(2)-C and 500 Kelly cells were seeded in 6-well plates and treated with #5333 and #5338 24 h after seeding. Once colonies had formed (14 days for Kelly, 10 days for SK-N-BE(2)-C), cells were fixed and stained with 0.5% crystal violet in 50% methanol and washed twice to remove the unincorporated stain. The photos of colonies were taken by ChemiDoc MP Imaging System (Bio-Rad, South Granville, NSW, Australia). Stained colonies were counted, and colony size was measured using Image J software.
(§6) We treated human neuroblastoma tumour cell lines with high MYCN and PA2G4 expression (Kelly and SK-N-BE(2)-C), using increasing concentrations of #5333 or #5338, and measured the ability of cells to proliferate and form colonies in vitro over 2 weeks. […] Next, we evaluated cell replication using the BrdU uptake assay in response to 30 μM drug treatment for 48 h (Figure 2C).

A further assay concerns Kelly cells. Briefly: Colony formation assay, Kelly. Format: cell-based, human. The settings on record: increasing concentrations, 2 weeks. The method, then: as §5, §6
In assay [3] the test system is SK-N-BE(2)-C cells. Briefly: Label-free quantitative LC/MS proteomics of treated SK-N-BE(2)-C cells. To be noted: 72 h, versus DMSO, LFQ LC/MS. Format: cell-based, human. Here is the method:
SK-N-BE(2)-C cells were incubated with #5333 or #5338 at IC50 concentration of the compound for 72 h. Cells were harvested and the pellets were lysed with RIPA buffer containing protease inhibitors (Sigma-Aldrich, St. Louis, MO, USA). Cell lysates were sent for LFQ/LC/MS analysis at the Bioanalytical Mass Spectrometry Facility, UNSW Sydney. […] Differential protein expression analysis was performed using the DEP (v1.14.0) package in R(v4.1.1). Variance stabilising transformation (vsn) method was used to normalise the protein expression data. Threshold of p-value < 0.05 and log2 fold-change value > |0.6| was used as a cut off to identify differentially expressed proteins. Functional enrichment analysis was performed using DAVID (v 6.8).
To further understand the mechanism of action and off target effects of the WS6 analogues, we used label-free quantitative mass spectrometry of differential proteome expression in response to drug treatment. […] A total of 4255 unique proteins were captured across the three proteomes, of which 258 proteins were differentially expressed after treatment with #5333, and 1371 proteins treated with #5338, when compared to DMSO-treated cells (Figure 4A,B and Supplementary Figure S4A).

The next assay concerns Kelly shMYCN cells. Briefly: Alamar Blue viability, Dox-inducible Kelly shMYCN cells. The settings on record: Homo sapiens, 72 h, 72 h treatment. The class given is cell-based.
From the text: as §1, §2, §3, §4

[4] abbreviates: Dox (2 μg/ml) +, MYCN - (knockdown).

For `Cc1cccc(Oc2cc(N3CCC(C(=O)NCc4cccc(Br)c4)CC3)ncn2)c1C` [#5333], the half-maximal inhibitory concentration (IC50) in assay [1] (setting [4]) came to 46.6 µM; in assay [1] (Dox (2 μg/ml) -, MYCN +) it was 25.2 µM; with Kelly shMYCN cells (setting [4]) it was 52.8 µM; with Kelly shMYCN cells (Dox (2 μg/ml) -, MYCN +) it was 22.4 µM. For the same molecule, the “colony number and size, SK-N-BE(2)-C” value with SK-N-BE(2)-C cells [2] was “decreased both the number and size of the colonies”. Besides, the “colony number and size, Kelly” value in the assay with Kelly cells is “decreased both the number and size of the colonies”. Moreover, in the assay on SK-N-BE(2)-C cells [3], the “GATA2 protein fold change” value is given as −4.2.
As for `Cc1cccc(Oc2cc(N3CCC(C(=O)N[C@@H](C)CCc4ccccc4)CC3)ncn2)c1C` [#5338], the IC50 in assay [1] (setting [4]) amounted to 32.3 µM; in assay [1] (Dox (2 μg/ml) -, MYCN +) it was 24.1 µM; with Kelly shMYCN cells (setting [4]) it was 31.5 µM; in the assay on Kelly shMYCN cells (Dox (2 μg/ml) -, MYCN +), 16 µM. The “colony number and size, SK-N-BE(2)-C” value in the assay with SK-N-BE(2)-C cells [2] was “decreased both the number and size of the colonies”. In addition, the “colony number and size, Kelly” value in the assay with Kelly cells is “decreased both the number and size of the colonies”. Besides, the “GATA2 protein fold change” value in the assay on SK-N-BE(2)-C cells [3] is recorded as −5.5.

The values are drawn from PMC10046377, “Inhibitors of the Oncogenic PA2G4-MYCN Protein-Protein Interface” (Cancers, 2023).
